In paper PMC8248988, “A signal capture and proofreading mechanism for the KDEL-receptor explains selectivity and dynamic range in ER retrieval” (eLife, 2021):

System: ERP72
Test: ER chaperone secretion assay, ERP72
Assay type: cell-based, human
Source text: Figure 1. ER retrieval signal abundance and affinity are not correlated. (a) Sequence logos for ER resident proteins with C-terminal KDEL retrieval signals and variants thereof calculated using frequency or protein abundance ([Itzhak et al., 2017]; [Itzhak et al., 2016]). (b) Combined cellular concentrations of ER resident proteins with canonical KDEL, RDEL, and HDEL retrieval sequences in HeLa cells and mouse brain. (c) Competition binding assays for [^3H]-TAEHDEL and unlabelled TAEKDEL, TAERDEL, and TAEHDEL to the KDEL receptor. IC50 values for the competing peptides were used to calculate the apparent KDwith the Cheng-Prusoff equation ([Cheng and Prusoff, 1973]). (d) Endogenous KDEL receptor redistribution was measured in COS-7 cells in the absence (-ligand) or presence of K/R/H/A/DDEL (mScarlet-xDEL^sec). TGN46 was used as a Golgi marker. Scale bar is 10 µm. […] The individual data points for the fraction of KDEL receptor fluorescence in the Golgi are plotted on the upper axes with sample sizes and p values. […] Endogenous ER chaperone secretion was measured by western blotting after challenge with different retrieval signals, and plotted as a bar graph showing mean ± SEM (n = 3). […] (a) Distribution of human KDELR1 and (b) KDELR2 was measured in COS-7 cells in the absence (-ligand) or presence of K/R/H/A/DDEL retrieval signals (K/R/H/A/DDEL^sec). […]

Substance: ADEL [pcDNA3.1 hGHss-mScarlet-H. sapiens BiP639-654K651A (ADEL^SEC), secreted mScarlet fusion with human BiP C-terminus, ADEL signal]
- ERP72 secretion after challenge with retrieval signal (mean, HeLa S3, 24 hr, Western blot densitometry): 4.2
- ERP72 secretion after challenge with retrieval signal (replicate 2): 1.0
